Reference: patent US6653344B2, “Pharmaceutical preparations containing a dibenzocyclooctane lignan derivative for treatment of neurodegenerative disease” (Elcom Bio Technology Co., Ltd., priority 2000, dated 2003)
Entries after “also recorded” stand apart in the source; their conditions may differ.

Assays:
Type in all cases: cell-based
[1] = tested on: glutamate-damaged primary cultured rat cortical cells; assay: Neuroprotection against glutamate-induced neurotoxicity, cell viability by MTT assay; design: Viability (%) Pre-treatment / Viability (%) Post-treatment: unit of the concentration uncertain; details: for Viability: 1 hr before 100 M glutamate, then 24 hr, control 100, glutamate-treated 0; for Viability (%) Pre-treatment: compound 1 µM for 1 hr before 100 µM glutamate (15 min), then 24 hr in DMEM in the absence of compound; for Viability (%) Post-treatment: glutamate 15 min, washed, 24 hr in the presence of compound 1 µM; for neuroprotective activity, post-treatment (in words): post-treatment with lignan after glutamate; for neuroprotective activity, pre-treatment (in words): pre-treatment with lignan before glutamate; for neuroprotective activity against glutamate-induced neurotoxicity (in words): primary cultures of rat cortical cells, L-glutamate
Description: (§1) Primary cultures of mixed cortical cells containing both neuron and glia were prepared from fetal rats as described previously (Kim Y C, Kim S R, Markelonis G J and Oh T H (1998) Ginsenosides Rb1 and Rg3 protect cultured rat cortical cells from glutamate-induced neurodegeneration. J. Neurosci. Res. 53: 426-432).
(§2) The cortical cells were plated onto collagen-coated dishes at a density of 1×10^6 cells/ml. The cultured cells were grown in DMEM supplemented with 10% heat-inactivated fetal calf serum, 1 mM sodium pyruvate, 100 IU/ml pecicillin and 100 μg/ml streptomycin at 37° C. in a humidified atmosphere of 95% air/5% CO2. cultures were allowed to mature for 2 weeks before being used for experiments.
The lignan compounds to be investigated for having neuroprotective activity or not were dissolved in DMSO(within final culture concentration, 0.1%) and diluted with distilled water and by passing the solution through Milliporemembrane (0.22 μm, Millex-GV, USA) to make sterile state. The solution was cultured, by differentiating the concentration and dosed to neuron cells.
Cortical cells directly isolated from […] fetal were cultured for 14 days. The samples to be tested were treated at different concentrations to cultured cells. After one hour, neurotoxicity was induced by treating 100 μM of glutamate. After 24 hours, the survival cell rate were measured by MTT assay to determine neuroprotective activity of the samples.
(§3) To culture broth of the cortical cells during being cultured, MTT(5 mg/ml) was added by 10% of the culture broth. The broth was cultured for more 3 hours. The formed formazan was dissolved by DMSO and was assayed absorption at 540 nm ((Mosmann T (1983) Rapid colorimetric assay for cellular growth and survival: Application to proliferation and cytotoxicity assays. J. Immuno. Methods 65: 55-61)
Deoxychizandrin, gomisin N, schizandrin and wuweizisu C, the important dibenzocyclooctane lignans of Schizandra fruit were evaluated by assessing the viability of cultured cortical neurons after treatment with the neurotoxicant, glutamate. […] After cortical cells were cultured for 14 days, test compounds were dosed at different concentrations and after 1 hour neurotoxicity was induced by 100 μM glutamate. After culturing for 24 hours, the neuroprotective activity was measured. The neuroprotective activity of the compounds were measured by MTT assay for assaying the activity of succinate dehydrogenase. […] And the content of formazan is decreased, too. By using this phenomena, cell survival rate can be measured.
We investigated the protective mechanisms of deoxyschizandrin, gomisin N and wuweizisu C in an attempt to determine at which stage these lignans protected neurons from glutamate-induced toxicity. Cultures were pretreated with the lignans for […] exposure to glutamate(pre-treatment). In addition, some cultures were exposed to glutamate in DMEM for 24 hours in the […] of lignans (post-treatment).
Rat Cortical cultures were treated with compounds for 1 hr before exposure to 100 M glutamate and then maintained for 24 hr. Cell viability was measured by the MTT assay. Optical density (OD) of the control and glutamate-treated were 1.18±0.09 and 0.75±0.07, respectively. Viability was calculated as 100×(OD of glutamate+compound-treated−OD of glutamate-treated)/(OD of control−OD of glutamate-treated). Values given represent the mean SD (n=3).
Rat cortical cultures were treated with compounds at the concentration of 1 M for 1 hr before exposure to 100 M glutamate (15 min) and then maintained in DMEM for 24 hr in the absence of compound (Pre-treatment). Some cortical cultures were exposed to glutamate for 15 min, washed and maintained in DMEN for 24 hr in the presence of compund (Posttreatment). Cell viability was measured by the MTT assay. Optical density (OD) of the control and glutamate-treated were 1.18±0.09 and 0.75±0.07, respectively. Viability was calculated as the same as Table 1. Values given represent the mean SD (n=3). […]

[2] = tested on: NMDA-insulted primary cultured rat cortical cells; assay: Neuroprotection against NMDA-induced toxicity, cell viability by MTT assay; details: for Viability (%) NMDA-insulted: compound 1 µM for 1 hr, then 50 µM NMDA, 24 hr
Description: as §1, §2, §3
Glutamate receiptor is divided into NMDA receiptor which is activated by NMDA and non-NMDA receiptor which is activated by alpha-amino-3-hydroxy-5-methyl-4-isoxazole and kainic acid (KA). To first cultured cortical cells, the above compounds were each treated. The neuro-protective activities of the compounds were measured, after toxicities were induced by NMDA, the NMDA receiptor agonist, or KA, the non-NMDA receiptor agonist.
Rat cortical cultures were treated with compounds at the concentration of 1 M for 1 hr. The cultures were then exposed to 50 µM NMDA or 50 µM KA and were maintained for an additional 24 hr. […]. Cell viability was measured by the MTT assay. Optical density of control, NMDA- and KA treated were 1.20±0.10, 0.77±0.05 and 0.85±0.08, respectively. Viability was calculated as the same as Table 1. Values given represent the mean SD (n=3).

[3] = tested on: intracellular Ca2+ ([Ca2+]i) in glutamate-damaged primary cultured rat cortical cells; assay: Measurement of Ca2+ concentration in cells (Fura-2 AM); details: for Protection ([Ca2+]i): compound 1 M (1 μM) for 1 hr before 100 M glutamate; for Protection ([Ca2+]i) / [Ca2+]i: 24 hr; for [Ca2+]i: compound for 1 hr, control 85.6, glutamate-treated 419.0
Description: Therefore, the effects of Ca^2+ influx by glutamate according to deoxyschizandrin, gomisin N and wuweizisu C were investigated.
(§4) Rat cortical cultures were treated with compounds at the concentration of 1 M for 1 hr before exposure to 100 M glutamate and then maintained for 24 hr. Values given represent the mean SD (n=3).

[4] = tested on: GSH-px activity in glutamate-injured primary cultured rat cortical cells; assay: Measurement of glutathione peroxidase activity (GSH-px); details: 24 hr; for GSH-px: compound 1 µM for 1 hr before 100 µM glutamate, control 18.7, glutamate-treated 9.2; for Protection (GSH-px activity): compound 1 M (1 uM) for 1 hr before 100 M glutamate
Description: Cells were collected by adding 0.1M potassium phosphate buffer (pH 7.4) to culture-broth-removed remainings from first cultured cortical cells. The collected cells were treated by supersonic wave for 20 seconds and were centrifuged at 4° C. with 3,000 g for 20 minutes to obtain the supernatant.
1 ml solution in test tube comprising 100 mM potassium phosphate buffer (pH 7.4), 1 mM reduced glutathione (GSH), 0.2 mM NADPH, 0.5 mM H2O2 and 1.5 units/ml of GSSG-reductase (GSSG-r) was prepared and 10 μl of cell supernatant was added and reacted. The loss of adsoption at 340 nm was assayed and the activity of GSH-px was measured.
In case glutamate is treated to first cultured cortical cells of mice, formation of NO is increased. […] When schizandrin is treated at the 1 μM concentration, it decreased NO content increased by glutamate. […] When deoxyschizandrin, gomisin N and wuweizisu C are treated at 1 uM concentration to first cultured cortical cells toxicity-induced by glutamate, those maintained about 50% of normal state activity of GSH-px and glutathione decreased by glutamate and have protective activity on the activity of antioxidant enzymes.
as §4

Row | Compound | Viability ([1]; compound 0.1 μM) | Viability (%) Pre-treatment [1] | Viability ([1]; compound 1.0 μM, 1 µM) | Viability ([1]; compound 5.0 μM) | Viability (%) Post-treatment [1] | neuroprotective activity, post-treatment (in words) [1] | neuroprotective activity, pre-treatment (in words) [1] | neuroprotective activity against glutamate-induced neurotoxicity (in words) [1] | Viability (%) NMDA-insulted [2] | Protection ([Ca2+]i) [3] | [Ca2+]i [3] | GSH-px [4] | Protection (GSH-px activity) [4] | neuroprotective activity against toxicity induced by NMDA (in words) [2] | other results
1 | COc1cc2c(c(OC)c1OC)-c1c(cc(OC)c(OC)c1OC)C[C@H](C)[C@H](C)C2 [Deoxyschizandrin, deoxyschizandrin] | 11.6 ± 5.1% | 20.1 ± 3.1% | 46.2 ± 6.3 % | 45.6 ± 3.1 % | 45.9 ± 5.5 % | significant neuroprotective activity | not pre-treated | exhibited neuroprotective activities; also recorded: significantly have protective activity | 11.0 ± 3.5% | 20.5% | 350.7 ± 18.2 nM | 15.3 ± 3.0 μmol NADPH consumed/min/mg pro | 62.1% | – | Viability ([1]; compound 1.0 μM, listed as deoxyschzandrin, 1 µM): 46.2%; effect on Ca2+ influx by glutamate (in words) [3]: did not significantly effect; Protection (GSH-px activity) ([4]; listed as deoxyschizandrin): about 50%
2 | COc1cc2c(c(OC)c1OC)-c1c(cc3c(c1OC)OCO3)C[C@H](C)[C@H](C)C2 [Gomisin N, gomisin N] | 25.2 ± 4.4% | 45.5 ± 9.8 % | 51.3 ± 8.3 % | 49.2 ± 9.5 % | 39.6 ± 6.2 % | maintained its activity | maintained its activity | exhibited neuroprotective activities; also recorded: significantly have protective activity | 45.5 ± 6.8 % | 60.3% | 218.0 ± 11.9 nM | 14.6 ± 4.1 μmol NADPH consumed/min/mg pro | 56.8% | relatively better neuroprotective activity | Viability ([1]; compound 1.0 μM, listed as gomisin N, 1 µM): 51.3%; Protection ([Ca2+]i) ([3]; listed as gomisin N): 50.3%; Protection (GSH-px activity) ([4]; listed as gomisin N): about 50%
3 | COc1c2c(cc3c1-c1c(cc4c(c1OC)OCO4)C[C@H](C)[C@H](C)C3)OCO2 [Wuweizisu C, wuweizisu C] | 30.2 ± 6.3 % | 59.6 ± 5.1 % | 63.9 ± 5.9 % | 60.9 ± 9.6 % | 19.2 ± 7.8% | not post-treatment | neuroprotective | exhibited neuroprotective activities; also recorded: significantly have protective activity | 52.1 ± 7.1 % | 67.9% | 192.6 ± 9.1 nM | 13.9 ± 3.9 μmol NADPH consumed/min/mg pro | 49.5% | has neuroprotective activity | Viability ([1]; compound 1.0 μM, listed as wuwiewisu C, 1 µM): 63.9%; Protection (GSH-px activity) ([4]; listed as wuweizisu C): about 50%
